This is an account of results in patent publication US10752615B2, “Spirocyclic containing compounds and pharmaceutical uses thereof” (GB005, Inc., priority 2016, dated 2020).

Usually IC50 stands for the concentration that gives 50% inhibition. A high value points to a need for much substance.

Experiment [1] deals with TXK (Homo sapiens (Human), UniProt P42681). The experiment can be described thus: Kinase inhibition assay (Nanosyn, microfluidic detection), TXK. The class given is biochemical. The settings on record: 1 mM ATP, 3 hours at 25° C. The method, then: The in vitro kinase assays were performed at Nanosyn (Santa Clara, Calif.) utilizing microfluidic detection technology. The test compounds were serially pre-diluted in DMSO and added, by the acoustic dispensing (Labcyte® 550), directly to 384 well assay plates into 10 uL of a buffer with enzyme (ITK, TXK, BTK or TEC) comprising: 100 mM HEPES, pH7.5, 5 mM MgCl2, 0.1% bovine serum albumin, 1 mM DTT, 0.01% Triton X-100 and the enzyme. Final DMSO concentration was maintained at 1% in all samples, including the controls. The reactions were initiated by addition of ATP (1 mM final concentration) and the fluorescently labeled peptide substrate to a final concentration of 1 uM, and incubated for 3 hours at 25° C. Following incubation, the reactions were quenched by addition of 40 μL of termination buffer (100 mM HEPES, pH7.5, 0.01% Triton X-100, 50 mM EDTA). Terminated plates were analyzed using Caliper LabChip® 3000 microfluidic electrophoresis instrument (Caliper Life Sciences/Perkin Elmer). […] As substrate and product are separated by electrophoresis, two peaks of fluorescence are observed. Change in the relative fluorescence intensity of the substrate and product peaks was the parameter measured, reflecting enzyme activity. In the presence of inhibitor, the ratio between product and substrate is altered: signal of the product decreases, while the signal of the substrate increases. Activity in each test sample was determined as the product to sum ratio (PSR): P/(S+P), where P is the peak height of the product and S is the peak height of the […]. For each compound, enzyme activity was measured at 12 concentrations spaced by 3× dilution intervals. Negative control samples (0%-inhibition in the absence of inhibitor, DMSO only) and positive control samples (100%-inhibition, in the absence of enzyme or in the presence of control inhibitor) were assembled in replicates of four and were used to calculate %-inhibition values in the presence of compounds. Percent inhibition (Pinh) was determined using the following equation: Pinh=(PSR0%−PSRinh)/(PSR0%−PSR100%)*100, where PSRinh is the product sum ratio in the presence of inhibitor, PSR0% is the product sum ratio in the absence of inhibitor and PSR100% is the product sum ratio in 100%-inhibition control samples. To determine IC50 values, the inhibition curves (Pinh versus inhibitor concentration) were fitted by 4 parameter sigmoid dose-response model using XLfit software (IDBS).

Experiment [2] deals with BTK (Homo sapiens (Human), UniProt Q06187). The experiment can be described thus: Kinase inhibition assay (Nanosyn, microfluidic detection), BTK. The class given is biochemical. The settings on record: 1 mM ATP, 3 hours at 25° C. Here is the method: The in vitro kinase assays were performed at Nanosyn (Santa Clara, Calif.) utilizing microfluidic detection technology. The test compounds were serially pre-diluted in DMSO and added, by the acoustic dispensing (Labcyte® 550), directly to 384 well assay plates into 10 uL of a buffer with enzyme (ITK, TXK, BTK or TEC) comprising: 100 mM HEPES, pH7.5, 5 mM MgCl2, 0.1% bovine serum albumin, 1 mM DTT, 0.01% Triton X-100 and the enzyme. Final DMSO concentration was maintained at 1% in all samples, including the controls. The reactions were initiated by addition of ATP (1 mM final concentration) and the fluorescently labeled peptide substrate to a final concentration of 1 uM, and incubated for 3 hours at 25° C. Following incubation, the reactions were quenched by addition of 40 μL of termination buffer (100 mM HEPES, pH7.5, 0.01% Triton X-100, 50 mM EDTA). Terminated plates were analyzed using Caliper LabChip® 3000 microfluidic electrophoresis instrument (Caliper Life Sciences/Perkin Elmer). The enzymatic modification of the peptide substrate (phosphorylation) results in a change of net charge enabling electrophoretic separation of product from substrate. As substrate and product are separated by electrophoresis, two peaks of fluorescence are observed. Change in the relative fluorescence intensity of the substrate and product peaks was the parameter measured, reflecting enzyme activity. In the presence of inhibitor, the ratio between product and substrate is altered: signal of the product decreases, while the signal of the substrate increases. Activity in each test sample was determined as the product to sum ratio (PSR): P/(S+P), where P is the peak height of the product and S is the peak height of the […]. For each compound, enzyme activity was measured at 12 concentrations spaced by 3× dilution intervals. Negative control samples (0%-inhibition in the absence of inhibitor, DMSO only) and positive control samples (100%-inhibition, in the absence of enzyme or in the presence of control inhibitor) were assembled in replicates of four and were used to calculate %-inhibition values in the presence of compounds. Percent inhibition (Pinh) was determined using the following equation: Pinh=(PSR0%−PSRinh)/(PSR0%−PSR100%)*100, where PSRinh is the product sum ratio in the presence of inhibitor, PSR0% is the product sum ratio in the absence of inhibitor and PSR100% is the product sum ratio in 100%-inhibition control samples. To determine IC50 values, the inhibition curves (Pinh versus inhibitor concentration) were fitted by 4 parameter sigmoid dose-response model using XLfit software (IDBS).
BTK, sequence (Q06187 whole entry): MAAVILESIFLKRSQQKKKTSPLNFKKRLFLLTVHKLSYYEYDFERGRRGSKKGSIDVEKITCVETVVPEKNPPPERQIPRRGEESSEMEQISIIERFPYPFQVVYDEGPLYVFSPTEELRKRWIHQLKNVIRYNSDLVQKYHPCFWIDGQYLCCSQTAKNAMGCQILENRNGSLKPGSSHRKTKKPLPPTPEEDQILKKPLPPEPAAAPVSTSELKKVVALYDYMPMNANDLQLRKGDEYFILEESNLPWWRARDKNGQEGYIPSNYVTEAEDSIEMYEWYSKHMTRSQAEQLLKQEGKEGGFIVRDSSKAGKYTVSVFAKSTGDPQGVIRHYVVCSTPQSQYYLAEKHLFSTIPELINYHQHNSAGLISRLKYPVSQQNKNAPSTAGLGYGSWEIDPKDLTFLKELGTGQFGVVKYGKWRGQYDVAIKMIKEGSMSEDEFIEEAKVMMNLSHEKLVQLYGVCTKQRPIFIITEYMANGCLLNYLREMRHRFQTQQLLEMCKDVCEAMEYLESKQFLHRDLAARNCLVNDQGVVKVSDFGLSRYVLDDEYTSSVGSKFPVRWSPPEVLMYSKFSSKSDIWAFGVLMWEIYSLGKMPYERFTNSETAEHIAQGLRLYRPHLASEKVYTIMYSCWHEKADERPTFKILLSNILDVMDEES

TXK, sequence (P42681 whole entry): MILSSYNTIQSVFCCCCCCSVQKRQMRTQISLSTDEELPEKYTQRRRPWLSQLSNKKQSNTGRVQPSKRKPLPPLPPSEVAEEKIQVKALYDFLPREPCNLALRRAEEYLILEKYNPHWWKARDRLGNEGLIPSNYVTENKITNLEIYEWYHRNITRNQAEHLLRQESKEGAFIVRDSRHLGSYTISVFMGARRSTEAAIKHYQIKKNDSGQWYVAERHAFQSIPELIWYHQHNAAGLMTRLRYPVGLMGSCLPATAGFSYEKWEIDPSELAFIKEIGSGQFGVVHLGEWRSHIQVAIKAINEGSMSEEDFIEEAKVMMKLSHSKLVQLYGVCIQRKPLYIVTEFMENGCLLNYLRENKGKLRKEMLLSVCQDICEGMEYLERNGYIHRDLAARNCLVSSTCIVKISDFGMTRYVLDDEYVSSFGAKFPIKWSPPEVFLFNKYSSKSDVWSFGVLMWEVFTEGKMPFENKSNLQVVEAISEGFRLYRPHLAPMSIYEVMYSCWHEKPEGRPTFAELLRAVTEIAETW

As to `C=CC(=O)N1CC[C@]2(C1)C[C@@H](n1c(NC(=O)c3ccc(-c4cnco4)s3)nc3cccc(F)c31)C2` [Compound 62], the IC50 in experiment [1] was 1.58 nM; in experiment [2] it was 10.5 nM.

In the case of `C=CC(=O)N1CC[C@]2(C1)C[C@H](n1c(NC(=O)c3cnc(C)s3)nc3cc(CN[C@@H](C)C(C)(C)C)ccc31)C2` [Compound 8], the IC50 in experiment [1] is 0.67 nM; in experiment [2], 2.36 nM.

Take `C=CC(=O)N1CC[C@]2(C1)C[C@H](n1c(NC(=O)c3ccc(-c4cnco4)s3)nc3cc(Cl)ccc31)C2` [Compound 63]: the IC50 in experiment [1] turned out to be 0.37 nM; in experiment [2] it was 1.29 nM.

Regarding `C=CC(=O)N1CC[C@]2(C1)C[C@H](n1c(NC(=O)c3ccc(-c4cnco4)s3)nc3cc(N(C)C(=O)C4CCOCC4)ccc31)C2` [Compound 51], the IC50 in experiment [1] is 0.44 nM; in experiment [2], 0.73 nM.

For the compound `C=CC(=O)N1CC[C@]2(C1)C[C@H](n1c(NC(=O)c3ccc(-c4ccccn4)s3)nc3ccccc31)C2` [Compound 74], the IC50 in experiment [1] was found to be 1.62 nM; in experiment [2], 25.8 nM.

For the compound `C=CC(=O)N1CC[C@]2(C1)C[C@@H](n1c(NC(=O)c3ccc(-c4cnco4)s3)nc3ccc(CN4CCCC4)cc31)C2` [Compound 86], the IC50 came to 2.24 nM in experiment [1] and 8.41 nM in experiment [2].

Turning to `C=CC(=O)N1CC[C@]2(C1)C[C@H](n1c(NC(=O)c3ccncc3)nc3cc(CN[C@@H](C)C(C)(C)C)ccc31)C2` [Compound 20], the IC50 in experiment [1] worked out at 1.84 nM; in experiment [2] it was 4.52 nM.

Regarding `C=CC(=O)N1CC[C@]2(C1)C[C@H](n1c(NC(=O)c3ccc(-c4ccc(=O)[nH]c4)s3)nc3ccccc31)C2` [Compound 99], the IC50 in experiment [1] amounted to 1.01 nM; in experiment [2] it was 10.2 nM.

Consider `C=CC(=O)N1CC[C@]2(C1)C[C@H](n1c(NC(=O)c3ccc(-c4ccnc(NC)n4)s3)nc3ccccc31)C2` [Compound 137], for which the figures for the half-inhibitory concentration (IC50) in experiment [1] and in experiment [2] were 0.76 nM and 0.98 nM, respectively.

Take `C=CC(=O)N1CC[C@]2(C1)C[C@H](n1c(NC(=O)c3ccc(-c4cnco4)s3)nc3cccc(F)c31)C2` [Compound 56]: the IC50 in experiment [1] worked out at 0.26 nM; in experiment [2] it was 1.56 nM.

Turning to `C=CC(=O)N1CC[C@]2(C1)C[C@H](n1c(NC(=O)c3ccc(-c4cncnc4C)s3)nc3ccccc31)C2` [Compound 134], the IC50 in experiment [1] came to 1.01 nM; in experiment [2] it was 8.36 nM.

`C=CC(=O)N1CC[C@]2(C1)C[C@H](n1c(NC(=O)c3ccc(-c4cnco4)cc3)nc3cc(CN[C@@H](C)C(C)(C)C)ccc31)C2` [Compound 39]: the IC50 in experiment [1] was 0.97 nM; in experiment [2] it was 5.67 nM.

For `C=CC(=O)N1CC[C@]2(C1)C[C@H](n1c(NC(=O)c3ccc(-c4cnco4)s3)nc3ccc(F)cc31)C2` [Compound 58], the results for the IC50 in experiment [1] and in experiment [2] were 0.29 nM and 1.32 nM, respectively.

Turning to `C=CC(=O)N1CC[C@]2(C1)C[C@H](n1c(NC(=O)c3cccnc3)nc3cc(CN[C@@H](C)C(C)(C)C)ccc31)C2` [Compound 22], the results for the IC50 in experiment [1] and in experiment [2] were 1.71 nM and 4.79 nM, respectively.

With `C=CC(=O)N1CC[C@]2(C1)C[C@H](n1c(NC(=O)c3ccc(-c4ccn(C)c(=O)c4)s3)nc3ccccc31)C2` [Compound 109], the IC50 in experiment [1] came out at 14 nM; in experiment [2], 43.5 nM.

In the case of `C=CC(=O)N1CC[C@]2(C1)C[C@H](n1c(NC(=O)c3ccc(C)s3)nc3ccccc31)C2` [Compound 104], the results for the IC50 in experiment [1] and in experiment [2] were 2.16 nM and 26.2 nM, respectively.

As to `C=CC(=O)N1CC[C@]2(C1)C[C@H](n1c(NC(=O)c3ccc(-c4ccc(F)nc4)s3)nc3ccccc31)C2` [Compound 126], the IC50 in experiment [1] amounted to 0.8 nM; in experiment [2], 9.21 nM.

In the case of `C=CC(=O)N1CC[C@]2(C1)C[C@H](n1c(NC(=O)c3ccc(-c4ccc(=O)n(C)c4)s3)nc3ccccc31)C2` [Compound 108], the IC50 in experiment [1] is 1.02 nM; in experiment [2] it was 10.4 nM.

Consider `C=CC(=O)N1CC[C@]2(C1)C[C@H](n1c(NC(=O)c3ccc(-c4cnc(C)nc4)s3)nc3ccccc31)C2` [Compound 135], for which the IC50 was 8.67 nM in experiment [1] and 12.7 nM in experiment [2].

Turning to `C=CC(=O)N1CC[C@]2(C1)C[C@H](n1c(NC(=O)c3ccc(-c4cn[nH]c4)s3)nc3ccccc31)C2` [Compound 124], the IC50 in experiment [1] is 0.34 nM; in experiment [2], 1.43 nM.

Regarding `C=CC(=O)N1CC[C@]2(C1)C[C@H](n1c(NC(=O)c3ccc(-c4cnco4)s3)nc3ccc(CN4CCOCC4)cc31)C2` [Compound 77], the IC50 in experiment [1] stood at 0.37 nM; in experiment [2] it was 0.78 nM.

Consider `C=CC(=O)N1CC[C@]2(C1)C[C@H](n1c(NC(=O)c3ccc(-c4ccccc4)s3)nc3ccccc31)C2` [Compound 103], for which the IC50 in experiment [1] came out at 0.93 nM; in experiment [2], 6.12 nM.

In the case of `C=CC(=O)N1CC2(CC(n3c(NC(=O)c4ccc(C(F)F)s4)nc4cc(CN[C@@H](C)C(C)(C)C)ccc43)C2)C1` [Compound 1], the IC50 in experiment [1] stood at 52.6 nM; in experiment [2], 378 nM.

`C=CC(=O)N1CC[C@]2(C1)C[C@H](n1c(NC(=O)c3ccc(C(F)F)s3)nc3cc(CN[C@H]4CC[C@H](O)CC4)ccc31)C2` [Compound 35]: the IC50 in experiment [1] is 0.46 nM; in experiment [2] it was 1.04 nM.

For `C=CC(=O)N1CC[C@]2(C1)C[C@H](n1c(NC(=O)c3ccc(-c4cnn(C)c4)s3)nc3ccccc31)C2` [Compound 113], the figures for the IC50 in experiment [1] and in experiment [2] were 1.32 nM and 4.63 nM, respectively.

`C=CC(=O)N1CC[C@]2(C1)C[C@H](n1c(NC(=O)c3ccc(C(F)F)s3)nc3cc(CN[C@H]4C[C@H](O)C4)ccc31)C2` [Compound 36]: the IC50 was found to be 0.63 nM in experiment [1] and 1.14 nM in experiment [2].

In the case of `C=CC(=O)N1CC[C@]2(C1)C[C@H](n1c(NC(=O)c3ccc(C)nc3)nc3cc(CN[C@@H](C)C(C)(C)C)ccc31)C2` [Compound 26], the IC50 in experiment [1] turned out to be 0.99 nM; in experiment [2] it was 2.84 nM.

Regarding `C=CC(=O)N1CC[C@]2(C1)C[C@H](n1c(NC(=O)c3ccc(NC(=O)CC)s3)nc3ccccc31)C2` [Compound 105], the IC50 in experiment [1] worked out at 23.2 nM; in experiment [2] it was 112 nM.

Consider `C=CC(=O)N1CC[C@]2(C1)C[C@H](n1c(NC(=O)c3ccc(-c4ccnc(F)c4)s3)nc3ccccc31)C2` [Compound 125], for which the IC50 in experiment [1] was found to be 0.24 nM; in experiment [2] it was 1.06 nM.

Regarding `C=CC(=O)N1CC[C@]2(C1)C[C@H](n1c(NC(=O)c3ccc(-c4cnco4)s3)nc3cc(CN4CCOCC4)ccc31)C2` [Compound 41], the IC50 in experiment [1] came to 0.92 nM; in experiment [2], 1.81 nM.

`C=CC(=O)N1CC[C@]2(C1)C[C@H](n1c(NC(=O)c3ccc(-c4cccnc4)s3)nc3ccccc31)C2` [Compound 90]: the IC50 was 0.51 nM in experiment [1] and 5.23 nM in experiment [2].

In the case of `C=CC(=O)N1CC[C@]2(C1)C[C@H](n1c(NC(=O)c3ccc(-c4ccc(NC)nc4)s3)nc3ccccc31)C2` [Compound 117], the IC50 amounted to 4.9 nM in experiment [1] and 7.43 nM in experiment [2].
